The results in this text go back to ChEMBL document CHEMBL5143564, “PES derivative PESA is a potent tool to globally profile cellular targets of PES” (Bioorg Med Chem Lett, 2022).

Structures are written as SMILES. The source made the active and inactive calls. The rule behind the calls is not given here.

The species entered for assay [1] is Homo sapiens. Kind of assay: Binding affinity to ADP-bound full-length human HSP70 assessed as cysteine adduct formation at SBDalpha domain by measuring half life at 1 mM by fluorescence spectra analysis.
The target in assay [2] is T1, Peroxiredoxin-1 (Homo sapiens) (UniProt Q06830).
T1 sequence (whole entry): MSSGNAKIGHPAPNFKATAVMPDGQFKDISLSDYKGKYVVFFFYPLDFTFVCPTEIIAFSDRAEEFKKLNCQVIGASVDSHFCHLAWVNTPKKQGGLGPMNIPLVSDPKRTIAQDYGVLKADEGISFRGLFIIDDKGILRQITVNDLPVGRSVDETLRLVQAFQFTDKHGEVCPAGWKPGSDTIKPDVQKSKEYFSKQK
Nature of the assay: Binding affinity to PRDX1 in human DOHH-2 cells by MS analysis. It is filed as cell-based.

The test system of the next assay is DOHH-2. Nature of the assay: Up regulation of HSP90alpha expression in human DOHH-2 cells at 0.5 to 8 uM measured after 24 hrs by Western blot analysis. To be noted: dose 0.5-8 µM. It is filed as functional, cell-based. Background: Immunoblotting shows a protein as a band on a membrane.
Assay [3] deals with T2, D-3-phosphoglycerate dehydrogenase (Homo sapiens) (UniProt O43175).
T2 sequence (whole entry): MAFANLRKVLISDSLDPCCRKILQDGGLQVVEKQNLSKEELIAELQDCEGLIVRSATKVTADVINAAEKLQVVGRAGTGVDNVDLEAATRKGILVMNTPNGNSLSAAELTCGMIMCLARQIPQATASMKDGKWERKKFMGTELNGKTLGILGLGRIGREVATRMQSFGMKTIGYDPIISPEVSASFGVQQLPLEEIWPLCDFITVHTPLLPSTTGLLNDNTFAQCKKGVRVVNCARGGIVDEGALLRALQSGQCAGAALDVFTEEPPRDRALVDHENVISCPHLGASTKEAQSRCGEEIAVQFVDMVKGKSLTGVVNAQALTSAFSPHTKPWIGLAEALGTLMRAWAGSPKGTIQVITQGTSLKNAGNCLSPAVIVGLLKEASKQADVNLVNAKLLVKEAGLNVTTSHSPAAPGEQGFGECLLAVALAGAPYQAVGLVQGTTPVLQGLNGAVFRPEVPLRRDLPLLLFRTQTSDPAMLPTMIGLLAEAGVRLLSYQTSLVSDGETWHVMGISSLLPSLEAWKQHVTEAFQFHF
Nature of the assay: Binding affinity to D-3-phosphoglycerate dehydrogenase in human MDA-MB-453 cells measured after 6 hrs by pull-down assay. It is filed as cell-based. Conditions: dose <= 20.0 µM, DDE = dose-dependent effect.

The target in assay [4] is T3, Protein disulfide-isomerase A6 (Homo sapiens) (UniProt Q15084).
T3 sequence (whole entry): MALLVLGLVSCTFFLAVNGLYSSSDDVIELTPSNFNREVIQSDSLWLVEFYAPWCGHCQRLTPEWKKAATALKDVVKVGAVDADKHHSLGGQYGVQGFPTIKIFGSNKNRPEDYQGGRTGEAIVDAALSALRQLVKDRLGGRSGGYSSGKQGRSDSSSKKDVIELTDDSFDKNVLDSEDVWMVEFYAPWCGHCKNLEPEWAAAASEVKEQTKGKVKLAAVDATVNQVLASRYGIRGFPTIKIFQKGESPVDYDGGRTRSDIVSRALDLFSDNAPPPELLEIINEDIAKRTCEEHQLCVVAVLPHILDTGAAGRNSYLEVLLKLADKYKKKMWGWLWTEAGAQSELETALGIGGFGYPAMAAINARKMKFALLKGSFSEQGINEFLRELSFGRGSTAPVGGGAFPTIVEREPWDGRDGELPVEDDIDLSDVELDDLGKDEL
Kind of assay: Binding affinity to PDIA6 in human MDA-MB-453 cells measured after 6 hrs by pull-down assay. It is filed as cell-based. To be noted: dose <= 20.0 µM, DDE = dose-dependent effect.

Assay [5] deals with T4, Protein disulfide-isomerase A4 (Homo sapiens) (UniProt P13667).
T4 sequence (whole entry): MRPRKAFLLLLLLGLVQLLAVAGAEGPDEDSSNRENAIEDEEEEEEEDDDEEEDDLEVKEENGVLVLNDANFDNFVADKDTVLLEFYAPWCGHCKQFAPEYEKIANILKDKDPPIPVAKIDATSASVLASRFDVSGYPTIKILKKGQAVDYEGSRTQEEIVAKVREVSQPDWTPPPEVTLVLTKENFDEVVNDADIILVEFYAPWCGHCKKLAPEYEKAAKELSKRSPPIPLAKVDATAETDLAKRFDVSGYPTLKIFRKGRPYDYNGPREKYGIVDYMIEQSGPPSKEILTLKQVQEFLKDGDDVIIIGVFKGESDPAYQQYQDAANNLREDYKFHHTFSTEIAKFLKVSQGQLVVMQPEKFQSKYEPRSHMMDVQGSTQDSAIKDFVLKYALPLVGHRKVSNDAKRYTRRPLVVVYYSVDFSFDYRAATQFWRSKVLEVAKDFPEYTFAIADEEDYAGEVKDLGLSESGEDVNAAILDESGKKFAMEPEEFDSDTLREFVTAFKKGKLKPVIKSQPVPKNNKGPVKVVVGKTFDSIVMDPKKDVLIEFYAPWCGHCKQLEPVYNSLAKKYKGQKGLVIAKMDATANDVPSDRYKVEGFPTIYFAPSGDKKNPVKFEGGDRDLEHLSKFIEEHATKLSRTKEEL
Nature of the assay: Binding affinity to PDIA4 in human DOHH-2 cells measured after 6 hrs by pull-down assay. It is filed as cell-based. Conditions: DDE = dose-dependent effect.

The next assay relates to Jurkat. Kind of assay: Cytotoxicity against human Jurkat T cells measured after 72 hrs. It is filed as functional, cell-based.
The target in assay [6] is T5, Peroxiredoxin-2 (Homo sapiens) (UniProt P32119).
T5 sequence (whole entry): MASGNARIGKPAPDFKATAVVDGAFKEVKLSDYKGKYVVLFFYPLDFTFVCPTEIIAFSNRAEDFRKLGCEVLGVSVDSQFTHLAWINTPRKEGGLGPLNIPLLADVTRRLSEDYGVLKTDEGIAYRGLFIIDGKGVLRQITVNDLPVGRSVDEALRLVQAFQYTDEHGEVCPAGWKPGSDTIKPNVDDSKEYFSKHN
Nature of the assay: Binding affinity to PRDX2 in human DOHH-2 cells measured after 6 hrs by pull-down assay. It is filed as cell-based. To be noted: DDE = dose-dependent effect.

Assay [7] is filed under the species Homo sapiens. Nature of the assay: Binding affinity to ADP-bound full-length human HSP70 by TAMRA-azide based fluorescence imaging analysis. Conditions: dose 0.2-20 µM, DDE = dose-dependent effect.
Assay [8] deals with T5, Peroxiredoxin-2 (Homo sapiens). Kind of assay: Binding affinity to PRDX2 in human MDA-MB-453 cells measured after 6 hrs by pull-down assay. It is filed as cell-based. To be noted: dose <= 20.0 µM, DDE = dose-dependent effect.
Assay [9] has as its target T4, Protein disulfide-isomerase A4 (Homo sapiens). Kind of assay: Binding affinity to PDIA4 in human MDA-MB-453 cells measured after 6 hrs by pull-down assay. It is filed as cell-based. Conditions: dose <= 20.0 µM, DDE = dose-dependent effect.

As for `C#Cc1cccc(C#CS(N)(=O)=O)c1`, in the assay listed under Homo sapiens [1], the T1/2 was determined as 1.53 h. Further, the outcome (in [2]; in the assay with DOHH-2; in the assay on Jurkat) was Active. The Activity entry (in assay [3]; in assay [4]; in [5]; in [6]; in the assay listed under Homo sapiens [7]; in assay [8]) was “Dde” throughout. For the same compound, the Activity result in assay [9] was “Dde”.
